Laboratory results: PubChem BioAssay (NCI)
“And” between values parts separate entries of the source, which are not always exact repeats. Identical values can stand only once.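 Results reflect a 48-hour exposure of cells in 96-well plates to compound at five concentrations. GI50: concentration for 50% inhibition of growth. TGI: total growth inhibition.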

Tests used:
Experiment in all cases: DTP human tumour cell line panel, 48 h
SR leukemia = test system: SR leukemia
SNB-75 CNS = test system: SNB-75 CNS
HL-60(TB) leukemia = test system: HL-60(TB) leukemia
NCI-H226 lung = test system: NCI-H226 lung
IGROV1 ovarian = test system: IGROV1 ovarian
ACHN renal = test system: ACHN renal
HOP-92 NSCLC = test system: HOP-92 NSCLC
BT-549 breast = test system: BT-549 breast
DU-145 prostate = test system: DU-145 prostate
HS 578T breast = test system: HS 578T breast

| Compound | GI50 (SR leukemia) | TGI (SR leukemia) | GI50 (SNB-75 CNS) | TGI (SNB-75 CNS) | GI50 (HL-60(TB) leukemia) | TGI (HL-60(TB) leukemia) | GI50 (NCI-H226 lung) | TGI (NCI-H226 lung) | GI50 (IGROV1 ovarian) | TGI (IGROV1 ovarian) | GI50 (ACHN renal) | TGI (ACHN renal) | GI50 (HOP-92 NSCLC) | TGI (HOP-92 NSCLC) | GI50 (BT-549 breast) | TGI (BT-549 breast) | GI50 (DU-145 prostate) | TGI (DU-145 prostate) | GI50 (HS 578T breast) | TGI (HS 578T breast) |
| --- | --- | --- | --- | --- | --- | --- | --- | --- | --- | --- | --- | --- | --- | --- | --- | --- | --- | --- | --- | --- |
| O=S(=O)([O-])c1ccc(N=Cc2ccccc2[O-])cc1.O=S(=O)([O-])c1ccc(N=Cc2ccccc2[O-])cc1.[Co+2] | 30.3 µM | > 100 µM | > 100 µM | > 100 µM | 40.1 µM | > 100 µM | > 100 µM | > 100 µM | > 100 µM | > 100 µM | > 100 µM | > 100 µM | 52.1 µM | > 100 µM |  |  |  |  |  |  |
| CSCS(=O)C[C@H](CO)NC(=O)/C=C/c1c(C)[nH]c(=O)[nH]c1=O (stereo partly drawn) |  | 22.8 µM | 1.14 µM | 4.15 µM and 1.03 µM | 2.23 µM | 4.96 µM and 3.44 µM |  | 3.42 µM | 1.78 µM | 9.35 µM and 14.1 µM |  | 6.86 µM | 0.815 µM | 4.05 µM and 0.778 µM |  |  |  |  |  |  |
| O=C(Nc1cccc2c1C(=O)c1c(NC(=O)c3ccccc3)ccc(Nc3cccc4c3C(=O)c3ccccc3C4=O)c1C2=O)c1ccccc1 |  | > 100 µM |  | > 100 µM |  | > 100 µM |  | > 100 µM |  | > 100 µM |  | > 100 µM |  |  |  |  |  |  |  |  |
| COC(=O)c1ccccc1N(C(=O)c1ccccc1)c1ccccc1C |  | 99.4 µM |  | > 100 µM |  | 43.1 µM |  | > 100 µM |  | > 100 µM |  | > 100 µM |  |  |  |  |  |  |  |  |
| C=C(CO)CC(O)c1cc(OC)ccc1OC (stereo not drawn) |  |  |  | > 100 µM |  | > 100 µM |  | > 100 µM |  | > 100 µM |  | > 100 µM |  | > 100 µM |  |  |  |  |  |  |
| CCCCCOCC(O)CO (stereo not drawn) |  |  |  |  |  |  |  | > 100 µM |  | > 100 µM |  | > 100 µM |  | > 100 µM |  |  |  |  |  |  |
| O=C(O)C[C@@H](Cl)[C@H](NC(=O)OCc1ccccc1)C(=O)O |  |  |  | > 100 µM |  | > 100 µM |  | > 100 µM |  | > 100 µM |  | > 100 µM |  | > 100 µM |  |  |  |  |  |  |
| Cc1c(O)c(N=Nc2nc3ccccc3s2)c2ccccc2c1O | > 50 µM | > 50 µM |  |  | > 50 µM | > 50 µM |  |  | 17.6 µM | > 50 µM | 19.4 µM | > 50 µM | 33.9 µM | > 50 µM | 15.5 µM | > 50 µM | 23.4 µM | > 50 µM | 28.9 µM | > 50 µM |
| CC(C)C12Cc3c(ccc4ccccc34)OC1(C)Oc1ccc3ccccc3c1C2 (stereo not drawn) |  | > 100 µM |  | > 100 µM |  |  |  | > 100 µM |  | > 100 µM |  | > 100 µM |  | > 100 µM |  |  |  |  |  |  |
| CCC(=O)N1C(=O)OCC1C(C)C (stereo not drawn) |  |  |  | > 100 µM |  | > 100 µM |  |  |  | > 100 µM |  | > 100 µM |  | > 100 µM |  |  |  |  |  |  |
| CC(C)N(O)C(=N)c1ccccc1 |  |  |  | > 100 µM |  | > 100 µM |  | > 100 µM |  |  |  |  |  | > 100 µM |  |  |  |  |  |  |
| Oc1ccc(O)c(-c2cn3c(n2)SCC3)c1 | 4.03 µM | 10.4 µM |  |  |  |  | 6.85 µM | 28.6 µM | 39.9 µM | > 100 µM | 20.4 µM | 34.7 µM |  |  | 11.8 µM | 25.7 µM |  |  | 18.6 µM | 90.7 µM |
| CSC(=NC#N)S/C=C/C(=O)c1ccccc1 | 12.9 µM | 69.4 µM |  |  |  |  |  |  |  |  | 28.6 µM | 76.9 µM | 32.4 µM | > 100 µM | 29.2 µM | 70.4 µM | 20.6 µM | 46.3 µM | 39 µM | 96.8 µM |
